From the supplement of paper PMC13207355
Counter-ions that a name gives are not always drawn.

Key:
Details in all cases: exposure time: 72 h
[1] = test system: E31 (patient-derived glioblastoma stem cells of proneural subtype); assay: surviving fraction (nuclei count normalised to DMSO); higher = more cells surviving (less toxic)
[2] = test system: E34 (patient-derived glioblastoma stem cells of proneural subtype); assay: as above
[3] = test system: E28 (patient-derived glioblastoma stem cells of classical subtype); assay: as above
[4] = test system: FT3469 (normal neural stem cell line); assay: as above
[5] = test system: E57 (patient-derived glioblastoma stem cells of mesenchymal subtype); assay: as above
[6] = test system: E21 (patient-derived glioblastoma stem cells of mesenchymal subtype); assay: as above
[7] = test system: E13 (patient-derived glioblastoma stem cells of classical subtype); assay: as above
[8] = test system: E31; assay: phenotypic distance (Euclidean, principal components) from DMSO controls (arbitrary units); higher = stronger morphological change
[9] = test system: E34; assay: as above
[10] = test system: E28; assay: as above
[11] = test system: FT3469; assay: as above
[12] = test system: E57; assay: as above
[13] = test system: E21; assay: as above
[14] = test system: E13; assay: as above
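For phenotypic distance (Euclidean, principal components) from DMSO controls in this document: cell Painting imaging in 384-well plates, CellProfiler features reduced to at least 20 principal components, Euclidean distance versus same-plate DMSO vehicle wells (0.1% v/v), median over six images per well.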
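For surviving fraction (nuclei count normalised to DMSO) in this document: nuclei counted by high-content imaging of Hoechst-stained cells in laminin-coated 384-well plates, relative to 0.1% DMSO vehicle wells, with staurosporine as cell-death control.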

Cc1c(-c2ccc(-c3ccccc3F)cc2)nc2ccc(F)cc2c1C(=O)O [Brequinar sodium salt hydrate]
Details	phenotypic distance	surviving fraction
[1], 4.1 nM	–	1.1
[1], 12.3 nM	–	1
[1], 37 nM	–	0.96
[1], 111.1 nM	–	1.13
[1], 333.3 nM	–	0.724
[1], 1000 nM	–	0.392
[1], 3000 nM	–	0.407
[2], 4.1 nM	–	0.811
[2], 12.3 nM	–	0.864
[2], 37 nM	–	0.96
[2], 111.1 nM	–	1.01
[2], 333.3 nM	–	0.909
[2], 1000 nM	–	0.888
[2], 3000 nM	–	0.794
[3], 4.1 nM	–	1.13
[3], 12.3 nM	–	1.03
[3], 37 nM	–	0.963
[3], 111.1 nM	–	0.807
[3], 333.3 nM	–	0.606
[3], 1000 nM	–	0.42
[3], 3000 nM	–	0.344
[4], 4.1 nM	–	0.883
[4], 12.3 nM	–	0.941
[4], 37 nM	–	0.996
[4], 111.1 nM	–	1
[4], 333.3 nM	–	0.858
[4], 1000 nM	–	0.742
[4], 3000 nM	–	0.65
[5], 4.1 nM	–	0.969
[5], 12.3 nM	–	0.999
[5], 37 nM	–	0.871
[5], 111.1 nM	–	0.67
[5], 333.3 nM	–	0.458
[5], 1000 nM	–	0.372
[5], 3000 nM	–	0.325
[6], 4.1 nM	–	0.951
[6], 12.3 nM	–	1.04
[6], 37 nM	–	0.918
[6], 111.1 nM	–	0.817
[6], 333.3 nM	–	0.699
[6], 1000 nM	–	0.649
[6], 3000 nM	–	0.444
[7], 4.1 nM	–	1.01
[7], 12.3 nM	–	1.08
[7], 37 nM	–	1.03
[7], 111.1 nM	–	0.858
[7], 333.3 nM	–	0.726
[7], 1000 nM	–	0.615
[7], 3000 nM	–	0.471
[8], 4.1 nM	0.556	–
[8], 12.3 nM	0.921	–
[8], 37 nM	0.734	–
[8], 111.1 nM	0.725	–
[8], 333.3 nM	2.59	–
[8], 1000 nM	3.28	–
[8], 3000 nM	3.43	–
[9], 4.1 nM	0.701	–
[9], 12.3 nM	0.581	–
[9], 37 nM	0.513	–
[9], 111.1 nM	0.804	–
[9], 333.3 nM	1	–
[9], 1000 nM	1.62	–
[9], 3000 nM	2.87	–
[10], 4.1 nM	1.07	–
[10], 12.3 nM	0.503	–
[10], 37 nM	0.823	–
[10], 111.1 nM	1.12	–
[10], 333.3 nM	1.2	–
[10], 1000 nM	2.26	–
[10], 3000 nM	2.28	–
[11], 4.1 nM	0.696	–
[11], 12.3 nM	0.439	–
[11], 37 nM	0.863	–
[11], 111.1 nM	0.612	–
[11], 333.3 nM	1.17	–
[11], 1000 nM	1.76	–
[11], 3000 nM	1.88	–
[12], 4.1 nM	1.62	–
[12], 12.3 nM	0.514	–
[12], 37 nM	1.88	–
[12], 111.1 nM	3.44	–
[12], 333.3 nM	5.23	–
[12], 1000 nM	6.97	–
[12], 3000 nM	6.84	–
[13], 4.1 nM	0.972	–
[13], 12.3 nM	0.391	–
[13], 37 nM	1.22	–
[13], 111.1 nM	0.607	–
[13], 333.3 nM	1.48	–
[13], 1000 nM	2.5	–
[13], 3000 nM	3.68	–
[14], 4.1 nM	0.5	–
[14], 12.3 nM	0.844	–
[14], 37 nM	0.761	–
[14], 111.1 nM	1.8	–
[14], 333.3 nM	4.41	–
[14], 1000 nM	4.43	–
[14], 3000 nM	5.02	–

CC[C@H]1CN2CCc3cc(OC)c(OC)cc3[C@@H]2C[C@@H]1C[C@H]1NCCc2cc(OC)c(OC)cc21 [Emetine dihydrochloride hydrate]
Details	phenotypic distance	surviving fraction
[1], 4.1 nM	–	0.927
[1], 12.3 nM	–	0.842
[1], 37 nM	–	0.667
[1], 111.1 nM	–	0.313
[1], 333.3 nM	–	0.143
[1], 1000 nM	–	0.179
[1], 3000 nM	–	0.101
[2], 4.1 nM	–	0.908
[2], 12.3 nM	–	0.885
[2], 37 nM	–	0.818
[2], 111.1 nM	–	0.497
[2], 333.3 nM	–	0.404
[2], 1000 nM	–	0.387
[2], 3000 nM	–	0.426
[3], 4.1 nM	–	0.969
[3], 12.3 nM	–	1.05
[3], 37 nM	–	0.901
[3], 111.1 nM	–	0.385
[3], 333.3 nM	–	0.258
[3], 1000 nM	–	0.315
[3], 3000 nM	–	0.3
[4], 4.1 nM	–	1.12
[4], 12.3 nM	–	1.05
[4], 37 nM	–	0.997
[4], 111.1 nM	–	0.676
[4], 333.3 nM	–	0.511
[4], 1000 nM	–	0.492
[4], 3000 nM	–	0.535
[5], 4.1 nM	–	0.975
[5], 12.3 nM	–	0.918
[5], 37 nM	–	0.84
[5], 111.1 nM	–	0.354
[5], 333.3 nM	–	0.157
[5], 1000 nM	–	0.173
[5], 3000 nM	–	0.14
[6], 4.1 nM	–	0.907
[6], 12.3 nM	–	0.921
[6], 37 nM	–	0.816
[6], 111.1 nM	–	0.347
[6], 333.3 nM	–	0.223
[6], 1000 nM	–	0.153
[6], 3000 nM	–	0.173
[7], 4.1 nM	–	0.771
[7], 12.3 nM	–	0.923
[7], 37 nM	–	0.769
[7], 111.1 nM	–	0.481
[7], 333.3 nM	–	0.319
[7], 1000 nM	–	0.241
[7], 3000 nM	–	0.2
[8], 4.1 nM	1.22	–
[8], 12.3 nM	1.2	–
[8], 37 nM	2.2	–
[8], 111.1 nM	5.26	–
[8], 333.3 nM	5.72	–
[8], 1000 nM	4.54	–
[8], 3000 nM	5.99	–
[9], 4.1 nM	0.73	–
[9], 12.3 nM	0.706	–
[9], 37 nM	0.904	–
[9], 111.1 nM	2.93	–
[9], 333.3 nM	3.91	–
[9], 1000 nM	4.94	–
[9], 3000 nM	4.59	–
[10], 4.1 nM	0.561	–
[10], 12.3 nM	0.727	–
[10], 37 nM	1.13	–
[10], 111.1 nM	2.77	–
[10], 333.3 nM	3.25	–
[10], 1000 nM	3.1	–
[10], 3000 nM	3.67	–
[11], 4.1 nM	0.688	–
[11], 12.3 nM	0.903	–
[11], 37 nM	0.792	–
[11], 111.1 nM	3.79	–
[11], 333.3 nM	3.87	–
[11], 1000 nM	3.19	–
[11], 3000 nM	3.42	–
[12], 4.1 nM	1.02	–
[12], 12.3 nM	1.01	–
[12], 37 nM	0.848	–
[12], 111.1 nM	5.15	–
[12], 333.3 nM	6.55	–
[12], 1000 nM	6.5	–
[12], 3000 nM	6.32	–
[13], 4.1 nM	1.08	–
[13], 12.3 nM	0.979	–
[13], 37 nM	0.851	–
[13], 111.1 nM	6.33	–
[13], 333.3 nM	4.77	–
[13], 1000 nM	3.91	–
[13], 3000 nM	3.66	–
[14], 4.1 nM	1.31	–
[14], 12.3 nM	0.882	–
[14], 37 nM	1.91	–
[14], 111.1 nM	4.48	–
[14], 333.3 nM	4.34	–
[14], 1000 nM	5.43	–
[14], 3000 nM	6.58	–

CCOC(=O)OC(C)OC1=C(C(=O)Nc2ccccn2)N(C)S(=O)(=O)c2ccccc21 (centres undefined) [Ampiroxicam]
Details	phenotypic distance	surviving fraction
[1], 4.1 nM	–	0.83
[1], 12.3 nM	–	0.849
[1], 37 nM	–	0.967
[1], 111.1 nM	–	1
[1], 333.3 nM	–	0.856
[1], 1000 nM	–	1.02
[1], 3000 nM	–	1.08
[2], 4.1 nM	–	1.14
[2], 12.3 nM	–	0.946
[2], 37 nM	–	0.986
[2], 111.1 nM	–	1.1
[2], 333.3 nM	–	1.01
[2], 1000 nM	–	0.932
[2], 3000 nM	–	0.984
[3], 4.1 nM	–	0.815
[3], 12.3 nM	–	1.1
[3], 37 nM	–	0.896
[3], 111.1 nM	–	0.884
[3], 333.3 nM	–	0.939
[3], 1000 nM	–	1.08
[3], 3000 nM	–	0.871
[4], 4.1 nM	–	0.768
[4], 12.3 nM	–	1.05
[4], 37 nM	–	1.02
[4], 111.1 nM	–	1.05
[4], 333.3 nM	–	1.04
[4], 1000 nM	–	1.08
[4], 3000 nM	–	0.95
[5], 4.1 nM	–	0.955
[5], 12.3 nM	–	1.02
[5], 37 nM	–	0.962
[5], 111.1 nM	–	1.02
[5], 333.3 nM	–	0.943
[5], 1000 nM	–	1.06
[5], 3000 nM	–	1.08
[6], 4.1 nM	–	0.957
[6], 12.3 nM	–	0.928
[6], 37 nM	–	0.953
[6], 111.1 nM	–	0.847
[6], 333.3 nM	–	1.09
[6], 1000 nM	–	0.883
[6], 3000 nM	–	1.01
[7], 4.1 nM	–	0.882
[7], 12.3 nM	–	0.885
[7], 37 nM	–	1.02
[7], 111.1 nM	–	0.926
[7], 333.3 nM	–	1.08
[7], 1000 nM	–	0.895
[7], 3000 nM	–	0.916
[8], 4.1 nM	0.739	–
[8], 12.3 nM	0.998	–
[8], 37 nM	0.78	–
[8], 111.1 nM	0.734	–
[8], 333.3 nM	0.689	–
[8], 1000 nM	0.71	–
[8], 3000 nM	0.801	–
[9], 4.1 nM	0.789	–
[9], 12.3 nM	0.855	–
[9], 37 nM	0.505	–
[9], 111.1 nM	0.762	–
[9], 333.3 nM	0.521	–
[9], 1000 nM	0.542	–
[9], 3000 nM	0.73	–
[10], 4.1 nM	1.28	–
[10], 12.3 nM	0.987	–
[10], 37 nM	0.538	–
[10], 111.1 nM	0.744	–
[10], 333.3 nM	0.444	–
[10], 1000 nM	0.516	–
[10], 3000 nM	0.705	–
[11], 4.1 nM	0.638	–
[11], 12.3 nM	0.959	–
[11], 37 nM	0.379	–
[11], 111.1 nM	1.16	–
[11], 333.3 nM	0.73	–
[11], 1000 nM	1.03	–
[11], 3000 nM	0.924	–
[12], 4.1 nM	0.796	–
[12], 12.3 nM	0.83	–
[12], 37 nM	0.552	–
[12], 111.1 nM	0.54	–
[12], 333.3 nM	0.507	–
[12], 1000 nM	1.03	–
[12], 3000 nM	0.908	–
[13], 4.1 nM	0.574	–
[13], 12.3 nM	0.804	–
[13], 37 nM	0.922	–
[13], 111.1 nM	0.659	–
[13], 333.3 nM	0.834	–
[13], 1000 nM	0.819	–
[13], 3000 nM	0.71	–
[14], 4.1 nM	0.946	–
[14], 12.3 nM	0.661	–
[14], 37 nM	0.814	–
[14], 111.1 nM	0.688	–
[14], 333.3 nM	0.952	–
[14], 1000 nM	0.72	–
[14], 3000 nM	0.529	–
